According to patent EP0824862A1, “Dihaloformaldoxime carbamates as antimicrobial agents” (ROHM AND HAAS COMPANY, priority 1996, dated 1998):
≈ marks a conversion by molar mass, not a printed value.

How the values were obtained:
Format in all cases: cell-based
Aspergillus niger = assay: Minimum Inhibitory Concentration (MIC) test, two fold serial dilutions; conditions: Trypticase Soy Broth (TSB); unit assumed
Protocol: (§1) The spectrum of antimicrobial activity and the effect of anionic surfactant on the antimicrobial activity of the antimicrobial agents useful in the present invention were determined in Minimum Inhibitory Concentration (MIC) tests. MICs were determined by two fold serial dilutions of a compound in Minimal Salts Media (M9G), Trypticase Soy Broth (TSB) or Tryticase Soy Broth and anionic surfactant (TSBA). The compounds were tested against Aspergillus niger, Rhodotorula rubra, Escherichia coli and Pseudomonas aeruginosa. Results of the MIC tests are shown below.

Escherichia coli = assay: as above; conditions: unit assumed; for MIC E.Coli M9G: Minimal Salts Media (M9G); for MIC E. Coli TSB: Trypticase Soy Broth (TSB); for MIC E. coli TSBA: Trypticase Soy Broth and anionic surfactant (TSBA)
Protocol: as §1

Pseudomonas aeruginosa = assay: as above; conditions: Trypticase Soy Broth (TSB); unit assumed
Protocol: as §1

Rhodotorula rubra = assay: as above; conditions: Trypticase Soy Broth (TSB); unit assumed
Protocol: as §1

[1] = tested on: Pseudomonas aeruginosa, Klebsiella pneumonia, Enterobacter aerogenes; assay: Speed of kill test in synthetic cooling water; conditions: mixed culture 1:1:1, 10^6 cells per mL, concentration giving at least a two log reduction

Structure (SMILES): O=C(Nc1ccc(Cl)cc1)ON=C(Br)Br [Compound 3, N-(4-chlorophenyl)-dibromoformaldoxime carbamate]
- MIC A. niger TSB (Aspergillus niger): > 50 µg/mL
- MIC E.Coli M9G (Escherichia coli): < 4 µg/mL
- MIC E. Coli TSB (Escherichia coli): 63 µg/mL (≈ 177 µM)
- MIC E. coli TSBA (Escherichia coli): 63 µg/mL (≈ 177 µM)
- MIC P. aeruginosa TSB (Pseudomonas aeruginosa): 63 µg/mL (≈ 177 µM)
- MIC R. Rubra TSB (Rhodotorula rubra): > 50 µg/mL
- Effective Concentration 4 Hours [1]: 8 ppm
- Effective Concentration 24 Hours [1]: <4 ppm

Structure (SMILES): CCCCNC(=O)ON=C(Br)Br [Compound 6, N-(n-butyl)-dibromoformaldoxime carbamate]
- MIC A. niger TSB (Aspergillus niger): > 50 µg/mL
- MIC E.Coli M9G (Escherichia coli): < 4 µg/mL
- MIC E. Coli TSB (Escherichia coli): 250 µg/mL (≈ 828 µM)
- MIC E. coli TSBA (Escherichia coli): 63 µg/mL (≈ 209 µM)
- MIC P. aeruginosa TSB (Pseudomonas aeruginosa): 63 µg/mL (≈ 209 µM)
- MIC R. Rubra TSB (Rhodotorula rubra): > 50 µg/mL
- Effective Concentration 4 Hours [1]: 16 ppm
- Effective Concentration 24 Hours [1]: 16 ppm

Structure (SMILES): CCCCCCCCNC(=O)ON=C(Br)Br [Compound 7, N-(n-octyl)-dibromoformaldoxime carbamate]
- MIC A. niger TSB (Aspergillus niger): 50 µg/mL (≈ 140 µM)
- MIC E.Coli M9G (Escherichia coli): < 4 µg/mL
- MIC E. Coli TSB (Escherichia coli): 63 µg/mL (≈ 176 µM)
- MIC E. coli TSBA (Escherichia coli): 125 µg/mL (≈ 349 µM)
- MIC P. aeruginosa TSB (Pseudomonas aeruginosa): > 500 µg/mL
- MIC R. Rubra TSB (Rhodotorula rubra): 12.5 µg/mL (≈ 34.9 µM)

Structure (SMILES): CCCCCCNC(=O)ON=C(Br)Br [Compound 8, N-(n-hexyl)-dibromoformaldoxime carbamate]
- MIC A. niger TSB (Aspergillus niger): > 50 µg/mL
- MIC E.Coli M9G (Escherichia coli): < 4 µg/mL
- MIC E. Coli TSB (Escherichia coli): 63 µg/mL (≈ 191 µM)
- MIC E. coli TSBA (Escherichia coli): 32 µg/mL (≈ 97 µM)
- MIC P. aeruginosa TSB (Pseudomonas aeruginosa): 125 µg/mL (≈ 379 µM)
- MIC R. Rubra TSB (Rhodotorula rubra): 25 µg/mL (≈ 75.8 µM)
- Effective Concentration 4 Hours [1]: <4 ppm
- Effective Concentration 24 Hours [1]: <4 ppm

Structure (SMILES): Cc1ccc(NC(=O)ON=C(Br)Br)cc1 [Compound 9, N-(4-methylphenyl)-dibromoformaldoxime carbamate]
- MIC A. niger TSB (Aspergillus niger): < 0.8 µg/mL
- MIC E.Coli M9G (Escherichia coli): < 4 µg/mL
- MIC E. Coli TSB (Escherichia coli): 32 µg/mL (≈ 95.2 µM)
- MIC E. coli TSBA (Escherichia coli): 32 µg/mL (≈ 95.2 µM)
- MIC P. aeruginosa TSB (Pseudomonas aeruginosa): 16 µg/mL (≈ 47.6 µM)
- MIC R. Rubra TSB (Rhodotorula rubra): 3.2 µg/mL (≈ 9.52 µM)
- Effective Concentration 4 Hours [1]: 125 ppm
- Effective Concentration 24 Hours [1]: 8 ppm
